The results in this text go back to patent US20230174507A1, “IMIDAZOLE 3-OXIDE DERIVATIVE BASED ACSS2 INHIBITORS AND METHODS OF USE THEREOF” (METABOMED LTD., priority 2020, published 2023).

pIC50: −log10 of the molar value.

The pIC50 is the negative decadic logarithm of the IC50, by convention in mol/L.

For one experiment, the target named is T1, human ACSS2 protein (Homo sapiens, UniProt Q9NR19).
T1 construct: purchased OriGene Technologies, Inc
Briefly: ACSS2 cell-free activity assay (pyrophosphatase-coupled, Biomol green). Particulars: 10 nM human ACSS2, 90 minutes at 37 C, absorbance at 620 nm; read-out: ACSS2 Biochemical IC50; call rule not given here. As for the experimental part: ACSS2 Cell-Free Activity Assay (Cell-Free IC50)
The assay is based on a coupling reaction with Pyrophosphatase: ACSS2 is converting ATP+CoA+Acetate=>AMP+pyrophosphate+Acetyl-CoA (Ac-CoA). Pyrophosphatase converts pyrophosphate, a product of the ACSS2 reaction, to phosphate which can be detected by measuring the absorbance at 620 nm after incubation with the Biomol green reagent (Enzo life Science, BML-AK111).
(§1) Cell Free IC50 Determination:
10 nM of human ACSS2 protein (OriGene Technologies, Inc) was incubated for 90 minutes at 37 C with various compounds' concentrations in a reaction containing 50 mM Hepes pH 7.5, 10 mM DTT, 90 mM KCl, 0.006% Tween-20, 0.1 mg/ml BSA, 2 mM MgCl2, 10 μM CoA, 5 mM NaAc, 300 μM ATP and 0.5 U/ml Pyrophosphatase (Sigma). At the end of the reaction, Biomol Green was added for 30 minutes at RT and the activity was measured by reading the absorbance at 620 nm. IC50 values were calculated using non-linear regression curve fit with 0% and 100% constrains (CDD Vault, Collaborative Drug Discovery, Inc.).

Another experiment has as its target T2, human ACSS1 protein (Homo sapiens, UniProt Q9NUB1).
T2 construct: purchased MyBioSource
T2 sequence (Q9NUB1 38-689): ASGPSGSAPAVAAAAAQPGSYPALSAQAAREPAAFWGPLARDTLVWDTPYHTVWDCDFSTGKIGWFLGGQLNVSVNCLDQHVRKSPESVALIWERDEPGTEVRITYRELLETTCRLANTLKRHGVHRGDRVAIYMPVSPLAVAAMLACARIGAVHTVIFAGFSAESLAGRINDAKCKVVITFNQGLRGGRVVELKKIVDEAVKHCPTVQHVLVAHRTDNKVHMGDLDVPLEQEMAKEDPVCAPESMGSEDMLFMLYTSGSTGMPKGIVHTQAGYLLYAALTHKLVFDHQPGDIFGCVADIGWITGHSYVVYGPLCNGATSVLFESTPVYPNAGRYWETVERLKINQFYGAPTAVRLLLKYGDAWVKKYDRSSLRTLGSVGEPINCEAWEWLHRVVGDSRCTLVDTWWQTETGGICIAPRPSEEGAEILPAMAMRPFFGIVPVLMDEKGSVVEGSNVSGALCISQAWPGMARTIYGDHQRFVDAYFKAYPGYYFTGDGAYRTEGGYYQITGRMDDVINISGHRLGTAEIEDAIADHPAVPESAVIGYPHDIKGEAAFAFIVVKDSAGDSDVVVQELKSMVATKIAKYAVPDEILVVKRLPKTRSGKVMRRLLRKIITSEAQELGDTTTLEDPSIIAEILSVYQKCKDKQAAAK
Briefly: ACSS1 cell-free activity assay (pyrophosphatase-coupled, Biomol green). The class given is biochemical. Particulars: 5 nM human ACSS1, 30 minutes at room temperature, absorbance at 620 nm. As for the experimental part: ACSS1 Cell-Free Activity Assay (Cell-Free IC50)
The assay is based on a coupling reaction with Pyrophosphatase: ACSS1 is converting ATP+CoA+Acetate=>AMP+pyrophosphate+Acetyl-CoA (Ac-CoA). Pyrophosphatase converts pyrophosphate, a product of the ACSS1 reaction, to phosphate which can be detected by measuring the absorbance at 620 nm after incubation with the Biomol green reagent (Enzo life Science, BML-AK111).
as §1
5 nM of human ACSS1 protein (MyBioSource) was incubated for 30 minutes at room temperature with various compounds' concentrations in a reaction containing 50 mM Hepes pH 7.5, 10 mM DTT, 90 mM KCl, 0.006% Tween-20, 0.1 mg/ml BSA, 2 mM MgCl2, 15 μM CoA, 5 mM NaAc, 300 μM ATP and 0.5 U/ml Pyrophosphatase (Sigma). At the end of the reaction, Biomol Green was added for 30 minutes at RT and the activity was measured by reading the absorbance at 620 nm. IC50 values were calculated using non-linear regression curve fit with 0% and 100% constrains (CDD Vault, Collaborative Drug Discovery, Inc.).

T1 sequence (Q9NR19 whole entry): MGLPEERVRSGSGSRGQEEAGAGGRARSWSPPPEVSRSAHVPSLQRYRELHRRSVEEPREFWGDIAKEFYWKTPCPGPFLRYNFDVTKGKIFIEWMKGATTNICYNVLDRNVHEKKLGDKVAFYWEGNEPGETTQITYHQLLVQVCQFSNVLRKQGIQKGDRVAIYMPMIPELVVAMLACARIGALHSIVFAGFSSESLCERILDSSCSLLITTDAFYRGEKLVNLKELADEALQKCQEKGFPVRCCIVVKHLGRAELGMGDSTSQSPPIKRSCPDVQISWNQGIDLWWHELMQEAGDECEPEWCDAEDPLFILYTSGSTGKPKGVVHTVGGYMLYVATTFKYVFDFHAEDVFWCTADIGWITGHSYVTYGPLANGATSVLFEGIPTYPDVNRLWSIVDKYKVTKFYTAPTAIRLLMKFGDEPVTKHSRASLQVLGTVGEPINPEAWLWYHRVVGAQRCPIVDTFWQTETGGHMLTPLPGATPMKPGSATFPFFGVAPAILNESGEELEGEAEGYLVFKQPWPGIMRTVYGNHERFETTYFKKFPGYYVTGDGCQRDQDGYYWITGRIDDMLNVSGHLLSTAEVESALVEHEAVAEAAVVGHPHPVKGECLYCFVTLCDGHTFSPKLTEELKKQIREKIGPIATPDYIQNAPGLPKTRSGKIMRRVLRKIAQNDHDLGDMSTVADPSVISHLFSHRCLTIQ

As to `C/C=C\c1cc(C)c(-c2cc(-c3[nH]c(C)c(C(=O)Nc4cccc(C(F)(F)CC)c4)[n+]3[O-])ccc2OC)c(C)c1` [Compound 160, (Z)-4-((3-(1,1-difluoropropyl)phenyl)carbamoyl)-2-(6-methoxy-2′,6′-dimethyl-4′-(prop-1-en-1-yl)-[1,1′-biphenyl]-3-yl)-5-methyl-1H-imidazole 3-oxide], the negative logarithm of the IC50 (pIC50) at human ACSS2 protein was 7.52 to 9.00. Moreover, the “ACSS1 Biochemical IC50 (nM)” value on human ACSS1 protein was “Inactive”.
For `CCC(F)(F)c1cccc(NC(=O)c2c(C)[nH]c(-c3ccc(OC)c(-c4cnccn4)c3C)[n+]2[O-])c1` [Compound 127, 4-((3-(1,1-difluoropropyl)phenyl)carbamoyl)-2-(4-methoxy-2-methyl-3-(pyrazin-2-yl)phenyl)-5-methyl-1H-imidazole 3-oxide], in that order: under 7.52 and “Inactive”.
For `COc1ccc(-c2[nH]c(C)c(C(=O)Nc3cccc(C(=O)N4CCN(C)CC4)c3)[n+]2[O-])cc1-c1c(C)cccc1C` [Compound 163, 2-[3-(2,6-dimethylphenyl)-4-methoxy-phenyl]-5-methyl-N-[3-(4-methylpiperazine-1-carbonyl)phenyl]-3-oxido-1H-imidazol-3-ium-4-carboxamide], the negative logarithm of the IC50 (pIC50) at human ACSS2 protein was under 7.52. Further, the “ACSS1 Biochemical IC50 (nM)” value on human ACSS1 protein is listed as “Inactive”.
With `CCC(F)(F)c1cccc(NC(=O)c2c(C)n(COP(=O)(OC)OC)c(-c3ccc(OC)c(-c4c(C)cccc4C)c3)[n+]2[O-])c1` [Compound 205, 4-((3-(1,1-difluoropropyl)phenyl)carbamoyl)-1-(((dimethoxyphosphoryl)oxy)methyl)-2-(6-methoxy-2′,6′-dimethyl-[1,1′-biphenyl]-3-yl)-5-methyl-1H-imidazole 3-oxide], the negative-log IC50 (pIC50) at human ACSS2 protein was under 7.52. On human ACSS1 protein, the “ACSS1 Biochemical IC50 (nM)” value is listed as “Inactive”.
On to `COc1ccc(-c2[nH]c(C)c(C(=O)Nc3cccc(C(=O)N4CCOCC4)c3)[n+]2[O-])cc1-c1c(C)cccc1C` [Compound 148, 2-(6-methoxy-2′,6′-dimethyl-[1,1′-biphenyl]-3-yl)-5-methyl-4-((3-(morpholine-4-carbonyl)phenyl)carbamoyl)-1H-imidazole 3-oxide], for which the pIC50 on human ACSS2 protein is under 7.52. On human ACSS1 protein, the “ACSS1 Biochemical IC50 (nM)” value was “Inactive”.
As to `CCC(F)(F)c1cccc(NC(=O)c2c(C)[nH]c(-c3ccc(OC)c(-c4cccnn4)c3C)[n+]2[O-])c1` [Compound 122, 4-((3-(1,1-difluoropropyl)phenyl)carbamoyl)-2-(4-methoxy-2-methyl-3-(pyridazin-3-yl)phenyl)-5-methyl-1H-imidazole 3-oxide], the pIC50 at human ACSS2 protein is under 7.52. For the same molecule, the “ACSS1 Biochemical IC50 (nM)” value on human ACSS1 protein was “Inactive”.
On to `CCC(F)(F)c1cccc(NC(=O)c2c(C)[nH]c(-c3ccc(OC)c(-c4c(C(F)(F)F)cccc4C(F)(F)F)c3)[n+]2[O-])c1` [Compound 128, 4-((3-(1,1-difluoropropyl)phenyl)carbamoyl)-2-(6-methoxy-2′,6′-bis(trifluoromethyl)-[1,1′-biphenyl]-3-yl)-5-methyl-1H-imidazole 3-oxide], for which the pIC50 on human ACSS2 protein is 7.52 to 9.00. For the same molecule, the “ACSS1 Biochemical IC50 (nM)” value at human ACSS1 protein was “Inactive”.
For `CC#Cc1cc(C)c(-c2cc(-c3[nH]c(C)c(C(=O)Nc4cccc(C(F)(F)CC)c4)[n+]3[O-])ccc2OC)c(C)c1` [Compound 156, 4-((3-(1,1-difluoropropyl)phenyl)carbamoyl)-2-(6-methoxy-2′,6′-dimethyl-4′-(prop-1-yn-1-yl)-[1,1′-biphenyl]-3-yl)-5-methyl-1H-imidazole 3-oxide], in that order: 7.52 to 9.00 and “Inactive”.
The like results for `COc1ccc(-c2[nH]c(C)c(C(=O)Nc3cccc(C4(C(F)(F)F)CC4)c3)[n+]2[O-])cc1-c1c(C)cccc1C` [Compound 206, 2-(6-methoxy-2′,6′-dimethyl-[1,1′-biphenyl]-3-yl)-5-methyl-4-((3-(1-(trifluoromethyl)cyclopropyl)phenyl)carbamoyl)-1H-imidazole 3-oxide] were, in that order, under 7.52 and “Inactive”.
